Source: BindingDB's records for doi:10.1080/14756360802187612 (Ben-Gurion University of The Negev, 2009)
Counter-ions that a name gives are not always drawn.

Biological target: Tryptophanase (Escherichia coli (strain K12), UniProt P0A853)
Test: Enzyme Inhibition Assay
Conditions: pH 7.8; 25 °C
Text: Enzyme inhibition assay using tryptophanase.

Sequence of Tryptophanase (P0A853 whole entry): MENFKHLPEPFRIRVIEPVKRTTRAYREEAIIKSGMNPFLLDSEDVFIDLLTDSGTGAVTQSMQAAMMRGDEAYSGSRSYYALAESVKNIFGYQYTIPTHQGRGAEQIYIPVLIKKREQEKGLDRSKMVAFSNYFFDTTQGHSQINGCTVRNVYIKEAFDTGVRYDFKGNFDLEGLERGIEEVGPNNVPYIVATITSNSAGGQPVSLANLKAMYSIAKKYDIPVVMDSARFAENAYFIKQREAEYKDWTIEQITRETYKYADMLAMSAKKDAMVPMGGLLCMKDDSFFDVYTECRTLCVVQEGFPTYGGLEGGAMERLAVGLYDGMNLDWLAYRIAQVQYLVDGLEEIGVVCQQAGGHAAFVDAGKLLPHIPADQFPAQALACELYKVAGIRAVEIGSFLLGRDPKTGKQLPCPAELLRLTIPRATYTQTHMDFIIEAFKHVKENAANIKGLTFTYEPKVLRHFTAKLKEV

CCOC(=O)C(N)Cc1c[nH]c2ccccc12 [L-tryptophan-ethylester (p-toluene sulfuric acid salt)] showed a Ki of 52 µM.
With CC(=O)NC(Cc1c[nH]c2ccccc12)C(=O)O (configuration not stated) [N-acetyl tryptophan] the Ki was 48 µM.
